Holding throughout (format): in vivo
For data set [1], the system named is Tetranychus urticae (spider mites - adult). The data set can be described thus: insecticidal mortality test, contact, French bean leaf. As to conditions: for mortality at 100 ppm: Tetranychus urticae, 72 h, read-out: grading of mortality, Tua, 100 ppm, 3 days. Here is the method: (§1) The activity of the Product was determined using a variety of insect pests. The Product was used in the form of liquid preparations containing 500, 250 or 100 parts per million (ppm) by weight of the Product. The preparations were made by dissolving the Product in acetone and diluting the solutions with water containing 0.01% by weight of a wetting agent sold under the trade name "LlSSAPOL" NX until the liquid preparations contained the required concentration of the Product. "Lissapol" is a Registered Trade Mark.
(§2) The test procedure adopted with regard to each pest was basically the same and comprised supporting a number of the pests on a medium which was usually a host plant or a foodstuff on which the pests feed, and treating either or both the pests and the medium with the preparations. The mortality of the pests was then assessed at periods usually varying from one to three days after the treatment.
(§3) The results of the tests are given in Table III for each of the Products, at the rate in parts per million given in the second column as a grading of mortality designated as A, B or C wherein A indicates 80-100% mortality, B indicates 50-79% mortality and C indicates less than 50% mortality.
(§4) In Table 111 the pest organism used is designated by a letter code and the pests species, the support medium or food, and the type and duration of test is given in Table II.

Another data set relates to Myzus persicae (aphids). Briefly: insecticidal mortality test, contact, Chinese Cabbage leaf. As to conditions: 72 h, read-out: grading of mortality, MP. As for the experimental part:
as §1, §2, §3, §4

Data set [2] has as its system Nephotettix cincticeps (green leaf hopper - nymphs). Briefly: insecticidal mortality test, contact, rice plant. As to conditions: read-out: grading of mortality, NC. Here is the method: as §1, §2, §3, §4
In data set [3] the test system is Heliothis virescens (tobacco budworm - larvae). Briefly: insecticidal mortality test, residual, cotton leaf. As to conditions: read-out: grading of mortality, HV. As for the experimental part: as §1, §2, §3, §4
For data set [4], the system named is Spodoptera exigua (lesser army worm - larvae). The data set can be described thus: insecticidal mortality test, residual, cotton leaf. As to conditions: read-out: grading of mortality, SP. Here is the method:
as §1, §2, §3, §4

The subject of data set [5] is Diabrotica balteata (rootworm larvae). The data set can be described thus: insecticidal mortality test, residual, filter paper/maize seed. As to conditions: read-out: grading of mortality, DB. Here is the method:
as §1, §2, §3, §4

The subject of data set [6] is Blattella germanica (cockroach nymphs). Briefly: insecticidal mortality test, residual, plastic pot. As to conditions: 72 h, read-out: grading of mortality, BG. As for the experimental part: as §1, §2, §3, §4
Data set [7] deals with Musca domestica (houseflies - adults). The data set can be described thus: insecticidal mortality test, contact, cotton wool/sugar. As to conditions: read-out: grading of mortality, MD. As for the experimental part: as §1, §2, §3, §4
The subject of data set [8] is Blattella germanica (adult males). The data set can be described thus: Blattella germanica knockdown test. Here is the method:
The test compound was dissolved in acetone (2 cm³) and the solution diluted to a concentration of 250 ppm with kerosene. 1 cm³ Of this preparation was sprayed onto 10 Blattella germanica (adult males) held in a netted plastic pot in a Burkhard potter Tower. Assessment of knockdown was performed at intervals of 5 minutes up to a total of 20 minutes. On removal from the Burkhard Potter Tower, the insects were held at 25°C and 65% relative humidity for 48 hours, and an assessment of mortality performed. Each test was repeated.
In some tests, additional knockdown assessment was performed at intervals of 1, 2, 3 and 4 minutes, and KT₅₀ and KT₉₀ values determined (the time taken, in minutes, to knockdown 50% and 90% respectively of test insects).

Setting [9] is: 72 h, 100 ppm, contact, rice plant, 3 days.
Where [10] appears, read: 72 h, 100 ppm, residual, cotton leaf, 3 days.

Each structure is given as a SMILES string. Several values for one entry are separate records, joined by “and”; a condition that tells them apart may be missing. Identical values can stand only once. Like-named read-outs stand apart in the source and are kept apart here.

On to `CC1(C)C(/C=C(\F)C(F)(F)F)C1C(=O)OCc1c(F)c(F)c(CN=[N+]=[N-])c(F)c1F` (mixture of isomers) [Product XXVIII, 4-(azidomethyl)-2,3,5,6-tetrafluorobenzyl (1RS, cis/trans)-3-(Z-2,3,3,3-tetrafluoroprop-1-en-1-yl)2,2-dimethylcyclopropanecarboxylate], for which the mortality at 100 ppm in [1] is less than 50%; in the data set with Myzus persicae (aphids) it was 80 to 100%; in data set [2] (48 h, 100 ppm, contact, rice plant, test duration of 2 days (footnote +)), 80 to 100%; in data set [3] (48 h, 100 ppm, residual, cotton leaf, test duration of 2 days (footnote +)), 80 to 100%; in data set [4] (48 h), 80 to 100%; in [5] (48 h) it was 80 to 100%. For the same molecule, the mortality at 100 ppm in data set [6] and in data set [7] (72 h) was 80 to 100% throughout. In data set [8] (250 ppm in kerosene, 1 cm3 sprayed onto 10 adult males, 15 min, tests 1 and 2 are repeats), the “% KNOCKDOWN OBSERVED 15 min” value was 70%. Besides, the “% KNOCKDOWN OBSERVED 20 min” value in data set [8] (250 ppm in kerosene, 1 cm3 sprayed onto 10 adult males, 20 min, tests 1 and 2 are repeats) amounted to 100%. In addition, in data set [8] (250 ppm spray, time taken to knockdown 50% of test insects, Tetramethrin: mean of 3 assessments), the KT₅₀ is 6.4 min and 12.6 min. In data set [8] (250 ppm spray, time taken to knockdown 90% of test insects, Tetramethrin: mean of 3 assessments), the KT₉₀ is 9.3 min and 18.3 min. Moreover, the mortality at 250 ppm in [8] (Blattella germanica, 48 h, 250 ppm spray, insects held at 25°C and 65% relative humidity for 48 hours, tests 1 and 2 are repeats, read-out: % MORTALITY 48 hrs) is 100%.

In the case of `CC1(C)C(C=C(Cl)C(F)(F)F)C1C(=O)OCc1c(F)c(F)c(COC=O)c(F)c1F` (racemic) [Product VIII, 4-(Formyloxymethyl)-2,3,5,6-tetrafluoromethyl (1RS, cis)-3-(Z-2-chloro-3,3,3-trifluoroprop-1-en-1-yl)-2,2-dimethylcyclopropanecarboxylate], the “grading of mortality, Tua” value in [1] (100 ppm, 3 days, listed as VIII, 4320 min) was “A (A indicates 80-100% mortality)”. For the same molecule, the mortality at 100 ppm in [2] (setting [9]), in data set [3] (setting [10]), in data set [4] (72 h), in [5] (72 h) and in data set [7] (24 h) was 80 to 100% in each case.

For the molecule `CC1(C)[C@H](C(=O)OCc2c(F)c(F)c(CBr)c(F)c2F)[C@@H]1/C=C(\Cl)C(F)(F)F` (relative stereo) [Product I, 4-(Bromomethyl)-2,3,5,6-tetrafluorobenzyl (1RS,cis)-3-(Z-2-chloro-3,3,3-trifluoroprop-1-en-1-yl)-2,2-dimethyl-cyclopropanecarboxylate], the mortality at 100 ppm in [1] is less than 50%; in [3] (72 h), 50 to 79%; in data set [5] (72 h), 80 to 100%; in data set [7] (24 h), less than 50%.

For `CC1(C)[C@H](C(=O)OCc2c(F)c(F)c(COS(C)(=O)=O)c(F)c2F)[C@@H]1/C=C(\Cl)C(F)(F)F` (relative stereo) [Product IV, 4-(methanesulphonyloxymethyl)-2,3,5,6-tetrafluorobenzyl (1RS,cis)-3-(Z-2-chloro-3,3,3-trifluoroprop-1-en-1-yl)-2,2-dimethylcyclopropanecarboxylate], the mortality at 100 ppm in data set [1] was 80 to 100%; with Myzus persicae (aphids), 80 to 100%; in [2] (72 h), 80 to 100%; in [3] (72 h), 80 to 100%; in data set [4] (72 h) it was 80 to 100%; in [5] (72 h), less than 50%. For the same molecule, the mortality at 100 ppm in [6] was 80 to 100%; in [7] (24 h), less than 50%.

As to `CC1(C)[C@H](C(=O)OCc2c(F)c(F)c(COC(=O)C(F)(F)F)c(F)c2F)[C@@H]1/C=C(\Cl)C(F)(F)F` (relative stereo) [Product V, 4-(trifluoroacetoxymethyl)-2,3,5,6-tetrafluorobenzyl (1RS,cis)-3-(Z-2-chloro-3,3,3-trifluoroprop-1-en-1-yl)-2,2-dimethylcyclopropanecarboxylate], the mortality at 100 ppm (in data set [1]; with Myzus persicae (aphids); in data set [2] (72 h); in data set [3] (72 h); in data set [4] (72 h); in data set [5] (72 h)) was 80 to 100% each time. Further, the mortality at 100 ppm in data set [6] and in data set [7] (24 h) was 80 to 100% each time.

For `COC(=O)OCc1c(F)c(F)c(COC(=O)[C@@H]2[C@H](/C=C(\Cl)C(F)(F)F)C2(C)C)c(F)c1F` (relative stereo) [Product VII, 4-(Methoxycarbonyloxymethyl)-2,3,5,6-tetrafluorobenzyl (1RS,cis)-3-(Z-2-chloro-3,3,3-trifluoroprop-1-en-1-yl)-2,2-dimethylcyclopropanecarboxylate], the mortality at 100 ppm (in data set [1]; in the data set on Myzus persicae (aphids); in [2] (72 h); in [3] (72 h); in data set [4] (72 h); in data set [5] (72 h)) was 80 to 100% throughout. Further, the mortality at 100 ppm in [6] is 80 to 100%; in data set [7] (24 h), less than 50%.

`CC#CCOCc1c(F)c(F)c(COC(=O)[C@@H]2[C@H](/C=C(\Cl)C(F)(F)F)C2(C)C)c(F)c1F` (relative stereo) [Product XIX, 4-[(But-2-yn-1-yl)oxymethyl]-2,3,5,6-tetrafluorobenzyl (1RS,cis)-3-(Z-2-chloro-3,3,3-trifluoroprop-1-en-1-yl)-2,2-dimethylcyclopropanecarboxylate]: the mortality at 100 ppm in [1] fell in the range of 50 to 79%; in the data set with Myzus persicae (aphids), 80 to 100%; in data set [2] (72 h), 80 to 100%; in data set [3] (72 h) it was 80 to 100%; in [4] (72 h), 80 to 100%; in [5] (72 h), 80 to 100%. Besides, the mortality at 100 ppm in [6] fell in the range of 80 to 100%; in data set [7] (24 h) it was 50 to 79%.

For `C#CCOCc1c(F)c(F)c(COC(=O)[C@@H]2[C@H](/C=C(\Cl)C(F)(F)F)C2(C)C)c(F)c1F` (relative stereo) [Product XX, 4-[(Prop-2-yn-1-yl)oxymethyl]-2,3,5,6-tetrafluorobenzyl (1RS,cis)-3-(Z-2-chloro-3,3,3-trifluoroprop-1-en-1-yl)-2,2-dimethylcyclopropanecarboxylate], the mortality at 100 ppm (in data set [1]; with Myzus persicae (aphids); in [2] (72 h); in [3] (72 h); in data set [4] (72 h); in data set [5] (72 h)) was 80 to 100% each time. Also, the mortality at 100 ppm in data set [6] and in [7] (24 h) was 80 to 100% in each case.

For `C#CC(C)OCc1c(F)c(F)c(COC(=O)C2C(C=C(Cl)C(F)(F)F)C2(C)C)c(F)c1F` (stereo not drawn) [Product XVIII, (Rs)-4-[(l-methylprop-2-yn-1-yl)oxymethyl]-2,3,5,6-tetrafluorobenzyl (1RS,cis)-3-(Z-2-chloro-3,3,3-trifluoroprop-1-en-1-yl)-2,2-dimethylcyclopropanecarboxylate], the mortality at 100 ppm in data set [1] was less than 50%; with Myzus persicae (aphids) it was 80 to 100%; in data set [2] (setting [9]), 80 to 100%; in data set [3] (setting [10]), 80 to 100%; in data set [4] (72 h), 80 to 100%; in data set [5] (72 h) it was 80 to 100%. Moreover, the mortality at 100 ppm in data set [6] and in [7] (24 h) was 80 to 100% in each case.

In general, mortality refers to the percentage killed.

The record behind these values is patent publication EP0302626A2, “Insecticidal compounds” (IMPERIAL CHEMICAL INDUSTRIES PLC, priority 1987, dated 1989).
